In ChEMBL document CHEMBL1201862, “PubChem BioAssay data set” (2004):
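Five compound concentrations were applied to cells in 96-well plates for 48 hours; endpoints were derived by simple linear interpolation of the resulting dose-response curve. At the GI50, growth is halved.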 Activity calls are given as the source filed them. Rule as the data show it: active = GI50 up to about 1.1 µM and inactive = higher.

Key:
Assay in all cases: NCI anticancer screen, dose series, 48 h
Malme-3M = system: Malme-3M
SR = system: SR
HL-60 = system: HL-60
NCI-H23 = system: NCI-H23
PC-3 = system: PC-3
M14 = system: M14
U-251 = system: U-251
BT-549 = system: BT-549
SK-MEL-5 = system: SK-MEL-5
MDA-MB-231 = system: MDA-MB-231
K562 = system: K562
HT-29 = system: HT-29
NCI-H460 = system: NCI-H460
786-0 = system: 786-0
NCI/ADR-RES = system: NCI/ADR-RES
SW-620 = system: SW-620
ACHN = system: ACHN
NCI-H226 = system: NCI-H226
OVCAR-4 = system: OVCAR-4
SN12C = system: SN12C
UO-31 = system: UO-31
RXF 393 = system: RXF 393
EKVX = system: EKVX
HCT-15 = system: HCT-15
SF-268 = system: SF-268
A549 = system: A549
SNB-75 = system: SNB-75
SK-MEL-28 = system: SK-MEL-28
HCT-116 = system: HCT-116
A498 = system: A498
CCRF-CEM = system: CCRF-CEM
TK-10 = system: TK-10
LOX IMVI = system: LOX IMVI
UACC-257 = system: UACC-257
HCC 2998 = system: HCC 2998
DU-145 = system: DU-145
MDA-MB-435 = system: MDA-MB-435
Hs-578T = system: Hs-578T
SF-295 = system: SF-295
HOP-92 = system: HOP-92
RPMI-8226 = system: RPMI-8226
SK-MEL-2 = system: SK-MEL-2
COLO 205 = system: COLO 205
SNB-19 = system: SNB-19
OVCAR-8 = system: OVCAR-8
HOP-62 = system: HOP-62
MDA-N = system: MDA-N
SK-OV-3 = system: SK-OV-3
OVCAR-5 = system: OVCAR-5
CAKI-1 = system: CAKI-1
T47D = system: T47D
OVCAR-3 = system: OVCAR-3
NCI-H522 = system: NCI-H522
SF-539 = system: SF-539
KM12 = system: KM12
MOLT-4 = system: MOLT-4
MCF7 = system: MCF7
UACC-62 = system: UACC-62
IGROV-1 = system: IGROV-1

Measured: GI50

CC(C)(C)[Si](C)(C)OCC1C=CC(n2cnc3c(N)ncnc32)O1 (stereo not drawn)
53.1 µM: HCT-15
inactive: Malme-3M 61.1 µM | SR 15.1 µM | HL-60 9.02 µM | NCI-H23 39.1 µM | PC-3 39.8 µM | M14 23.8 µM | U-251 32.1 µM | BT-549 24.7 µM | SK-MEL-5 15.4 µM | MDA-MB-231 44.2 µM | K562 9.1 µM | HT-29 53.5 µM | NCI-H460 > 100 µM | 786-0 61.2 µM | NCI/ADR-RES 34.2 µM | SW-620 21 µM | ACHN > 100 µM | NCI-H226 19.2 µM | OVCAR-4 32.9 µM | SN12C 35.9 µM | UO-31 52 µM | RXF 393 24.1 µM | EKVX > 59.8 µM | SF-268 83.2 µM | A549 > 100 µM | SNB-75 16.6 µM | SK-MEL-28 > 62.1 µM | HCT-116 20.1 µM | A498 > 79.3 µM | CCRF-CEM 8.32 µM | TK-10 > 100 µM | LOX IMVI 23 µM | UACC-257 36 µM | HCC 2998 > 100 µM | DU-145 64.3 µM | MDA-MB-435 22.3 µM | Hs-578T 47.2 µM | SF-295 55.2 µM | HOP-92 9.04 µM | RPMI-8226 16.7 µM | SK-MEL-2 39.4 µM | COLO 205 > 73.1 µM | SNB-19 94.2 µM | OVCAR-8 42.6 µM | HOP-62 69.8 µM | MDA-N 26.6 µM | SK-OV-3 81.1 µM | OVCAR-5 72.8 µM | CAKI-1 > 100 µM | T47D 20.6 µM | OVCAR-3 24.1 µM | NCI-H522 33.2 µM | SF-539 > 47.4 µM | KM12 59.2 µM | MOLT-4 10.1 µM | MCF7 30.1 µM | UACC-62 44.5 µM | IGROV-1 46.6 µM

C/C(=N\O)c1cccc[n+]1Cc1ccccc1
inactive: Malme-3M > 100 µM | SR > 100 µM | HL-60 > 100 µM | NCI-H23 > 100 µM | PC-3 > 100 µM | M14 > 100 µM | U-251 > 100 µM | BT-549 > 100 µM | SK-MEL-5 > 100 µM | MDA-MB-231 > 100 µM | K562 > 100 µM | HT-29 > 100 µM | NCI-H460 > 100 µM | 786-0 > 100 µM | NCI/ADR-RES > 100 µM | SW-620 > 100 µM | ACHN > 100 µM | NCI-H226 > 100 µM | OVCAR-4 > 100 µM | SN12C > 100 µM | UO-31 > 100 µM | RXF 393 > 100 µM | EKVX > 100 µM | SF-268 > 100 µM | A549 > 100 µM | SNB-75 > 100 µM | SK-MEL-28 > 100 µM | HCT-116 > 100 µM | A498 > 100 µM | CCRF-CEM > 100 µM | TK-10 > 100 µM | LOX IMVI > 100 µM | UACC-257 > 100 µM | HCC 2998 > 100 µM | DU-145 > 100 µM | MDA-MB-435 > 100 µM | Hs-578T > 100 µM | SF-295 > 100 µM | HOP-92 > 100 µM | RPMI-8226 > 100 µM | SK-MEL-2 > 100 µM | COLO 205 > 100 µM | SNB-19 > 100 µM | OVCAR-8 > 100 µM | HOP-62 > 100 µM | MDA-N > 100 µM | SK-OV-3 > 100 µM | OVCAR-5 > 100 µM | CAKI-1 > 100 µM | T47D > 100 µM | OVCAR-3 > 100 µM | NCI-H522 > 100 µM | SF-539 > 100 µM | KM12 > 100 µM | MOLT-4 > 100 µM | MCF7 > 100 µM | UACC-62 > 100 µM | IGROV-1 > 100 µM
> 100 µM: HCT-15
